Results reported in US8420657B2 (Novartis AG, priority 2008, dated 2013).

Assays:
GST-JAK2(808-1132) = molecular target: T1, GST-JAK2(808-1132) (Homo sapiens, UniProt O60674); assay: JAK2 kinase assay (Caliper mobility shift, LabChip 3000); type: biochemical
T1 construct: GST-JAK2(808-1132); purchased Invitrogen (Carlsbad, USA) #4288
Outline: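 Eight-point compound series (final 10–0.003 μM) tested on purchased GST-JAK2 kinase domain (808-1132). Peptide FITC-JAK3tide plus ATP reacted 60 min, 30 °C, then quenched with EDTA; turnover from charge-based separation of substrate and product.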

[1] = tested on: JAK2-dependent nuclear translocation of STAT5-GFP in U-2 OS osteosarcoma cells; assay: STAT5 nuclear translocation assay (Cellomics), rhEpo stimulated U-2 OS STAT5-GFP cells; type: cell-based; conditions: Homo sapiens, U2OS; STAT5 translocation pathway
Outline: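 U-2 OS cells stably expressing STAT5a-GFP and EpoR pre-treated with compound (final 10 μM to 0.003 μM, 0.1% DMSO) for 30 min at 37° C., then stimulated 1 h with 5 U/ml rhEpo. Nuclear-cytoplasmic GFP differential quantified by automated imaging (≥1000 cells/well, Hoechst nuclear mask). IC50 from % translocation normalized to untreated and DMSO-stimulated controls.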

T1 sequence (O60674 808-1132): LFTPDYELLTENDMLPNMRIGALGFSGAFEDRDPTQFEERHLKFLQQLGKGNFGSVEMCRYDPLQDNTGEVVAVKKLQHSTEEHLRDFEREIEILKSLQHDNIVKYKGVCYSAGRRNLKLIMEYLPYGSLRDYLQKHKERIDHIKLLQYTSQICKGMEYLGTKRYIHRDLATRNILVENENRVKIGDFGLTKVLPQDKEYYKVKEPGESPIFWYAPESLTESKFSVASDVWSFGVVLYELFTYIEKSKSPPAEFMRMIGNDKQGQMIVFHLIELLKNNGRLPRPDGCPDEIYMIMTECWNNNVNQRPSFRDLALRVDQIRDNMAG

Structure (SMILES): Cc1cc(Nc2ncc3ccn(-c4cc(F)c(CN5CCS(=O)(=O)CC5)c(F)c4)c3n2)cnc1N1C[C@@H](C)N[C@@H](C)C1 [Example 429]
- IC50 (GST-JAK2(808-1132)): ≤ 3 nM
- IC50 [1]: 41 nM

Structure (SMILES): C[C@@H]1CN(c2ncc(Nc3ncc4ccn(-c5cc(F)c(CN6CCS(=O)(=O)CC6)c(F)c5)c4n3)cc2Cl)C[C@H](C)N1 [Example 430, [5-Chloro-6-(cis-3,5-dimethyl-piperazin-1-yl)-pyridin-3-yl]-{7-[4-(1,1-dioxido-thiomorpholin-4-ylmethyl)-3,5-difluoro-phenyl]-7H-pyrrolo[2,3-d]pyrimidin-2-yl}-amine]
- IC50 (GST-JAK2(808-1132)): ≤ 3 nM
- IC50 [1]: 3.6 nM

Structure (SMILES): Fc1cc(-n2ccc3cnc(Nc4ccc5c(c4)NCC5)nc32)cc(F)c1CN1CCOCC1 [Example 431, [7-(3,5-Difluoro-4-morpholin-4-ylmethyl-phenyl)-7H-pyrrolo[2,3-d]pyrimidin-2-yl]-(2,3-dihydro-1H-indol-6-yl)-amine]
- IC50 (GST-JAK2(808-1132)): 3.2 nM
- IC50 [1]: 23.5 nM

Structure (SMILES): Cc1cc(Nc2ncc3ccn(-c4cc(F)c(CN5CCS(=O)(=O)CC5)c(F)c4)c3n2)cc(C)c1OCCN1CCOCC1 [Example 432, [3,5-Dimethyl-4-(2-morpholin-4-yl-ethoxy)-phenyl]-{7-[4-(1,1-dioxido-thiomorpholin-4-ylmethyl)-3,5-difluoro-phenyl]-7H-pyrrolo[2,3-d]pyrimidin-2-yl}-amine]
- IC50 (GST-JAK2(808-1132)): ≤ 3 nM
- IC50 [1]: 0.4 nM

Structure (SMILES): Cc1cc(Nc2ncc3ccn(-c4cc(F)c(CN5CCOCC5)c(F)c4)c3n2)cc(C)c1OCCN1CCOCC1 [Example 433, [7-(3,5-Difluoro-4-morpholin-4-ylmethyl-phenyl)-7H-pyrrolo[2,3-d]pyrimidin-2-yl]-[3,5-dimethyl-4-(2-morpholin-4-yl-ethoxy)-phenyl]-amine]
- IC50 (GST-JAK2(808-1132)): ≤ 3 nM
- IC50 [1]: 6.3 nM

Structure (SMILES): Cc1ccc(Nc2ncc3ccn(-c4cc(F)c(CN5CCOCC5)c(F)c4)c3n2)cc1CN1[C@H]2CC[C@@H]1CC2 [Example 436, [3-(7-Aza-bicyclo[2.2.1]hept-7-ylmethyl)-4-methyl-phenyl]-[7-(3,5-difluoro-4-morpholin-4-ylmethyl-phenyl)-7H-pyrrolo[2,3-d]pyrimidin-2-yl]-amine]
- IC50 (GST-JAK2(808-1132)): ≤ 3 nM
- IC50 [1]: 6.1 nM

Structure (SMILES): CN1CCN(c2ccc(Nc3ncc4ccn(-c5ccc6c(c5)CC(=O)N6C)c4n3)cn2)CC1 [Example 448, 1-Methyl-5-{2-[6-(4-methyl-piperazin-1-yl)-pyridin-3-ylamino]-pyrrolo[2,3-d]pyrimidin-7-yl}-1,3-dihydro-indol-2-one]
- IC50 (GST-JAK2(808-1132)): 5 nM
- IC50 [1]: 7.4 nM

Structure (SMILES): Cc1ccc(Nc2ncc3ccn(-c4cc(F)c(CN5CCOCC5)c(F)c4)c3n2)cc1C(=O)N1CCN(C)CC1 [Example 451, {5-[7-(3,5-Difluoro-4-morpholin-4-ylmethyl-phenyl)-7H-pyrrolo[2,3-d]pyrimidin-2-ylamino]-2-methyl-phenyl}-(4-methyl-piperazin-1-yl)-methanone]
- IC50 (GST-JAK2(808-1132)): 3.8 nM
- IC50 [1]: 24 nM

Structure (SMILES): Cc1ccc(Nc2ncc3ccn(-c4cc(F)c(CN5CCOCC5)c(F)c4)c3n2)cc1C(=O)N1C[C@@H](C)N[C@@H](C)C1 [Example 452, {5-[7-(3,5-Difluoro-4-morpholin-4-ylmethyl-phenyl)-7H-pyrrolo[2,3-d]pyrimidin-2-ylamino]-2-methyl-phenyl}-(cis-3,5-dimethyl-piperazin-1-yl)-methanone]
- IC50 (GST-JAK2(808-1132)): 6.2 nM
- IC50 [1]: 79.5 nM

Structure (SMILES): C[C@@H]1CN(c2ccc(Nc3ncc4ccn(-c5cc(F)cc(F)c5)c4n3)cn2)C[C@H](C)N1 [Example 453, [7-(3,5-Difluoro-phenyl)-7H-pyrrolo[2,3-d]pyrimidin-2-yl]-[6-(cis-3,5-dimethyl-piperazin-1-yl)-pyridin-3-yl]-amine]
- IC50 (GST-JAK2(808-1132)): 4.1 nM
- IC50 [1]: 36 nM

Structure (SMILES): C[C@@H]1CN(Cc2c(F)cc(-n3ccc4cnc(Nc5ccc(N6CCNCC6)nc5)nc43)cc2F)C[C@H](C)O1 [Example 454, {7-[4-(cis-2,6-dimethyl-morpholin-4-ylmethyl)-3,5-difluoro-phenyl]-7H-pyrrolo[2,3-d]pyrimidin-2-yl}-(6-piperazin-1-yl-pyridin-3-yl)-amine]
- IC50 (GST-JAK2(808-1132)): 4.5 nM
- IC50 [1]: 53.5 nM

Structure (SMILES): C[C@@H]1CN(C(=O)c2cccc(Nc3ncc4ccn(-c5cc(F)c(CN6CCOCC6)c(F)c5)c4n3)c2)C[C@H](C)N1 [Example 455, {3-[7-(3,5-Difluoro-4-morpholin-4-ylmethyl-phenyl)-7H-pyrrolo[2,3-d]pyrimidin-2-ylamino]-phenyl}-(cis-3,5-dimethyl-piperazin-1-yl)-methanone]
- IC50 (GST-JAK2(808-1132)): 4.3 nM
- IC50 [1]: 38 nM

Structure (SMILES): Fc1cc(-n2ccc3cnc(Nc4ccnc(N5CCN(C6CC6)CC5)c4)nc32)cc(F)c1CN1CCOCC1 [Example 456, [2-(4-Cyclopropyl-piperazin-1-yl)-pyridin-4-yl]-[7-(3,5-difluoro-4-morpolin-4-ylmethyl-phenyl)-7H-pyrrolo[2,3-d]pyrimidin-2-yl]-amine]
- IC50 (GST-JAK2(808-1132)): ≤ 3 nM
- IC50 [1]: 1.9 nM

Structure (SMILES): Fc1cc(-n2ccc3cnc(Nc4ccc(N5CCN(C6CC6)CC5)nc4)nc32)cc(F)c1CN1CCOCC1 [Example 457, [6-(4-Cyclopropyl-piperazin-1-yl)-pyridin-3-yl]-[7-(3,5-difluoro-4-morpholin-4-ylmethyl-phenyl)-7H-pyrrolo[2,3-d]pyrimidin-2-yl]-amine]
- IC50 (GST-JAK2(808-1132)): ≤ 3 nM
- IC50 [1]: 21 nM

Structure (SMILES): C[C@@H]1CN(c2ccc(Nc3ncc4ccn(-c5cc(F)c(CN6CCCC6=O)c(F)c5)c4n3)cn2)C[C@H](C)N1 [Example 458, 1-(4-{2-[6-(cis-3,5-Dimethyl-piperazin-1-yl)-pyridin-3-ylamino]-pyrrolo[2,3-d]pyrimidin-7-yl}-2,6-difluoro-benzyl)-pyrrolidin-2-one]
- IC50 (GST-JAK2(808-1132)): ≤ 3 nM
- IC50 [1]: 1.4 nM

Structure (SMILES): O=C(c1cccc(Nc2ncc3ccn(-c4cc(F)c(CN5CCOCC5)c(F)c4)c3n2)c1)N1CCN(C2CC2)CC1 [Example 459, (4-Cyclopropyl-piperazin-1-yl)-{3-[7-(3,5-difluoro-4-morpholin-4-ylmethyl-phenyl)-7H-pyrrolo[2,3-d]pyrimidin-2-ylamino]-phenyl}-methanone]
- IC50 (GST-JAK2(808-1132)): 5.1 nM
- IC50 [1]: 104 nM

Structure (SMILES): C[C@@H]1CN(Cc2ccc(Nc3ncc4ccn(-c5cc(F)c(CN6CCCC6=O)c(F)c5)c4n3)cc2)C[C@H](C)N1 [Example 462, 1-(4-{2-[4-(cis-3,5-Dimethyl-piperazin-1-ylmethyl)-phenylamino]-pyrrolo[2,3-d]pyrimidin-7-yl}-2,6-difluoro-benzyl)-pyrrolidin-2-one]
- IC50 (GST-JAK2(808-1132)): ≤ 3 nM
- IC50 [1]: 51 nM

Structure (SMILES): Cc1ccc(Nc2ncc3ccn(-c4cc(F)c(CN5CCCC5=O)c(F)c4)c3n2)cc1CN1CCNCC1 [Example 463, 1-{2,6-Difluoro-4-[2-(4-methyl-3-piperazin-1-ylmethyl-phenylamino)-pyrrolo[2,3-d]pyrimidin-7-yl]-benzyl}-pyrrolidin-2-one]
- IC50 (GST-JAK2(808-1132)): ≤ 3 nM
- IC50 [1]: 48 nM

Structure (SMILES): C[C@@H]1CN(Cc2ccc(Nc3ncc4ccn(-c5ccc(S(=O)(=O)NC(C)(C)C)cc5)c4n3)cc2)C[C@H](C)N1 [Example 464, N-tert-Butyl-4-{2-[4-(cis-3,5-dimethyl-piperazin-1-ylmethyl)-phenylamino]-pyrrolo[2,3-d]pyrimidin-7-yl}-benzenesulfonamide]
- IC50 (GST-JAK2(808-1132)): ≤ 3 nM
- IC50 [1]: 59 nM

Structure (SMILES): CN(C)CCN1CCN(c2ccc(Nc3ncc4ccn(-c5cc(F)c(CN6CCOCC6)c(F)c5)c4n3)cn2)CC1 [Example 465, [7-(3,5-Difluoro-4-morpholin-4-ylmethyl-phenyl)-7H-pyrrolo[2,3-d]pyrimidin-2-yl]-{6-[4-(2-dimethylamino-ethyl)-piperazin-1-yl]-pyridin-3-yl}-amine]
- IC50 (GST-JAK2(808-1132)): ≤ 3 nM
- IC50 [1]: 3.2 nM

Structure (SMILES): CN1CCN(C(=O)c2ccc(Nc3ncc4ccn(-c5cc(F)c(CN6CCOCC6)c(F)c5)c4n3)cn2)CC1 [Example 466, {5-[7-(3,5-Difluoro-4-morpholin-4-ylmethyl-phenyl)-7H-pyrrolo[2,3-d]pyrimidin-2-ylamino]-pyridin-2-yl}-(4-methyl-piperazin-1-yl)-methanone]
- IC50 (GST-JAK2(808-1132)): 7.9 nM
- IC50 [1]: 56 nM

Structure (SMILES): C[C@@H]1CN(Cc2ccc(Nc3ncc4ccn(-c5ccc6c(c5)CCC(=O)N6)c4n3)cc2)C[C@H](C)N1 [Example 468, 6-{2-[4-(cis-3,5-Dimethyl-piperazin-1-ylmethyl)-phenylamino]-pyrrolo[2,3-d]pyrimidin-7-yl}-3,4-dihydro-1H-quinolin-2-one]
- IC50 (GST-JAK2(808-1132)): ≤ 3 nM
- IC50 [1]: 14 nM

Structure (SMILES): O=C1CNCCN1c1ccc(Nc2ncc3ccn(-c4cc(F)c(CN5CCOCC5)c(F)c4)c3n2)cn1 [Example 470, 1-{5-[7-(3,5-Difluoro-4-morpholin-4-ylmethyl-phenyl)-7H-pyrrolo[2,3-d]pyrimidin-2-ylamino]-pyridin-2-yl}-piperazin-2-one]
- IC50 (GST-JAK2(808-1132)): 61 nM
- IC50 [1]: 17 nM

Structure (SMILES): Fc1cc(-n2ccc3cnc(Nc4ccc(CN5CCC(F)(F)C5)cc4)nc32)cc(F)c1CN1CCOCC1 [Example 471, [7-(3,5-Difluoro-4-morpholin-4-ylmethyl-phenyl)-7H-pyrrolo[2,3-d]pyrimidin-2-yl]-[4-(3,3-difluoro-pyrrolidin-1-ylmethyl)-phenyl]-amine]
- IC50 (GST-JAK2(808-1132)): 3.5 nM
- IC50 [1]: 31.5 nM

Structure (SMILES): CN1CCN(Cc2ccc(Nc3ncc4ccn(-c5cc(F)c(CN6CCOCC6)c(F)c5)c4n3)cn2)CC1 [Example 472, [7-(3,5-Difluoro-4-morpholin-4-yl methyl-phenyl)-7H-pyrrolo[2,3-d]pyrimidin-2-yl]-[6-(4-methyl-piperazin-1-ylmethyl)-pyridin-3-yl]-amine]
- IC50 (GST-JAK2(808-1132)): 3.6 nM
- IC50 [1]: 92 nM
